Test results reported in US7956053B2, “Inhibitors of tyrosine kinases” (Novartis AG, priority 2002, dated 2011).

Tests used:
c-Abl = target: T1, c-Abl (Homo sapiens, UniProt P00519); assay: Test for activity against c-Abl protein tyrosine kinase (filter binding assay); format: biochemical
T1 construct: The His-tagged kinase domain of c-Abl is cloned and expressed in the baculovirus/Sf9 system; His; made in house; host or cells: baculovirus/Sf9
T1 sequence (P00519 242-493 limits assumed): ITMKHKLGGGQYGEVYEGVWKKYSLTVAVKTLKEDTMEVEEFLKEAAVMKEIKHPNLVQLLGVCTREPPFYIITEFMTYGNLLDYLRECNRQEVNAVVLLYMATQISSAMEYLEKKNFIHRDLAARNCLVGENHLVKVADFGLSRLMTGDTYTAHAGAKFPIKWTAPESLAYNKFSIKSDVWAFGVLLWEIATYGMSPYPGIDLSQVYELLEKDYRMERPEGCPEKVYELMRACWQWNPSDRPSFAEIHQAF
Experimental: Test for activity against c-Abl protein tyrosine kinase. The test is conducted as a filter binding assay as follows: The His-tagged kinase domain of c-Abl is cloned and expressed in the baculovirus/Sf9 system as described by Bhat et al., J Biol. Chem. 272, 16170-5 (1997). A protein of 37 kD (c-Abl kinase) is purified by a two-step procedure over a Cobalt metal chelate column followed by an anion exchange column with a yield of 1-2 mg/L of Sf9 cells. The purity of the c-Abl kinase is >90% as judged by SDS-PAGE after Coomassie blue staining. The assay contains: c-Abl kinase (50 ng), 20 mM Tris.HCl, pH 7.5, 10 mM MgCl2, 10 μM Na3VO4, 1 mM DTT and 0.06 μCi/assay [γ^33 P]-ATP (5 μM ATP) using 30 μg/mL poly-Ala,Glu,Lys,Tyr-6:2:5:1 (Poly-AEKY, Sigma P1152) in the presence of 1% DMSO, total volume of 30 μL. Reactions are terminated by adding 10 μL of 250 mM EDTA, and 30 μL of the reaction mixture is transferred onto Immobilon-PVDF membrane (Millipore, Bedford, Mass., USA) previously soaked for 5 min with methanol, rinsed with water, then soaked for 5 min with 0.5% H3PO4 and mounted on vacuum manifold with disconnected vacuum source. After spotting all samples, vacuum is connected and each well rinsed with 200 μL 0.5% H3PO4. Membranes are removed and washed on a shaker with 0.5% H3PO4 (4 times) and once with ethanol. Membranes are counted after drying at ambient temperature, mounting in Packard TopCount 96-well frame, and addition of 10 μL/well of Microscint™ (Packard).
(§1) Enzymatic (c-Abl, KDR, Flt3) in vitro inhibition data are presented as % inhibition at 10 μM. The measurements are made as described above in the general description.

KDR = KDR (Homo sapiens, UniProt P35968); assay: Enzymatic KDR in vitro inhibition; format: biochemical
Sequence of KDR (P35968 20-1356): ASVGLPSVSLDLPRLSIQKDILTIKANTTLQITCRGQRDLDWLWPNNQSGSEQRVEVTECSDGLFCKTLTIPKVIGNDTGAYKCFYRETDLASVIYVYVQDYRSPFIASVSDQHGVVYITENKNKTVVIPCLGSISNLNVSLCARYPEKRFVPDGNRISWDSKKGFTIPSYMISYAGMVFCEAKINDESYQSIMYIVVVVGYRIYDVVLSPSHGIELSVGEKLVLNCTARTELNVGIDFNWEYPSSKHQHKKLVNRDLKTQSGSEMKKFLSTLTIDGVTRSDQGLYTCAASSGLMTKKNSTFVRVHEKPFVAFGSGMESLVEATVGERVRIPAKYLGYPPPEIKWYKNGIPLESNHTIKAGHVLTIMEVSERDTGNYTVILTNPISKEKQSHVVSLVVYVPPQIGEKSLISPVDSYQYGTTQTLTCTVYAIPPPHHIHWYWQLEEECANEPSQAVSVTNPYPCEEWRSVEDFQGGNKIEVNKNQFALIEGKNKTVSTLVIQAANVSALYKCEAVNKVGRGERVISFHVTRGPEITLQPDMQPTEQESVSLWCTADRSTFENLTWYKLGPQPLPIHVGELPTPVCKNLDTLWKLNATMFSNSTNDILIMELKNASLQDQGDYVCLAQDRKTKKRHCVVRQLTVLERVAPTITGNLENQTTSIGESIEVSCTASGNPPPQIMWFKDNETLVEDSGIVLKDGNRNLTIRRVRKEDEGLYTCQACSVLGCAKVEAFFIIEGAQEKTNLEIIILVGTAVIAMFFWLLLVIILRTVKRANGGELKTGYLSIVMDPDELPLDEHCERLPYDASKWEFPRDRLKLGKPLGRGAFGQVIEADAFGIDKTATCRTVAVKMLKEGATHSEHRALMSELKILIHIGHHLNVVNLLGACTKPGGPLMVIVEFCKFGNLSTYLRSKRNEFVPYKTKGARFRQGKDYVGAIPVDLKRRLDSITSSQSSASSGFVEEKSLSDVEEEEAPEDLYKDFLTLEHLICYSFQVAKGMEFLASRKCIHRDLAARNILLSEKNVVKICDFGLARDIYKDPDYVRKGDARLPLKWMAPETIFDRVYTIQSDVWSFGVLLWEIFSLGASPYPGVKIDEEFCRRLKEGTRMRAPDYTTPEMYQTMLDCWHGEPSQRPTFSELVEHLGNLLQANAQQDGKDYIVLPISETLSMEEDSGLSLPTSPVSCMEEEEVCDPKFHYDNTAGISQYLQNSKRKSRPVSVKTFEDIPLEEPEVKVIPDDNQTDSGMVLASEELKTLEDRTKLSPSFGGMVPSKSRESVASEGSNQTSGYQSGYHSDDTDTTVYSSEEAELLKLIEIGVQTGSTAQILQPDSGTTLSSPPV
Experimental: Test for activity against VEGF-receptor tyrosine kinase. The test is conducted using Flt-1 VEGF-receptor tyrosine kinase. The detailed procedure is as follows: 30 μL kinase solution (10 ng of the kinase domain of Flt-1, Shibuya et al., Oncogene 5, 519-24 [1990]) in 20 mM Tris.HCl pH 7.5, 3 mM manganese dichloride (MnCl2), 3 mM magnesium chloride (MgCl2), 10 μM sodium vanadate, 0.25 mg/mL polyethylenglycol (PEG) 20000, 1 mM dithiothreitol and 3 μg/μL poly(Glu,Tyr) 4:1 (Sigma, Buchs, Switzerland), 8 μM [^33P]-ATP (0.2 μCi), 1% DMSO, and 0 to 100 μM of the compound to be tested are incubated together for 10 minutes at room temperature. The reaction is then terminated by the addition of 10 μL 0.25 M ethylenediaminetetraacetate (EDTA) pH 7. Using a multichannel dispenser (LAB SYSTEMS, USA), an aliquot of 20 μL is applied to a PVDF (=polyvinyl difluoride) Immobilon P membrane (Millipore, Bedford, USA), through a Gibco-BRL microtiter filter manifold and connected to a vacuum. Following complete elimination of the liquid, the membrane is washed 4 times successively in a bath containing 0.5% phosphoric acid (H3PO4) and once with ethanol, incubated for 10 minutes each time while shaking, then mounted in a Hewlett Packard TopCount Manifold and the radioactivity measured after the addition of 10 μL Microscint® (β-scintillation counter liquid). IC50-values are determined by linear regression analysis of the percentages for the inhibition of each compound in at least four concentrations (as a rule 0.01, 0.1, 1.0 and 10 μmol).
as §1

Row | SMILES | inhibition at 10 µM (c-Abl) [%] | inhibition at 10 µM (KDR) [%]
1 | Cc1ccc(C(=O)NCCc2cnc(O)nc2O)cc1Nc1nccc(-c2cccnc2)n1 [Example 12, N-[2-(2,4-Dihydroxy-5-pyrimidinyl)ethyl]-4-methyl-3-[[4-(3-pyridinyl)-2-pyrimidinyl]amino]benzamide] | 22 | 33
2 | Cc1ccc(C(=O)NCC2CCCO2)cc1Nc1nccc(-c2cccnc2)n1 (centres unmarked) [Example 11, 4-Methyl-3-[[4-(3-pyridinyl)-2-pyrimidinyl]amino]-N-[(tetrahydro-2-furanyl)methyl]benzamide] | 53 | 41
3 | Cc1ccc(C(=O)NCc2ccc(C(F)(F)F)cc2)cc1Nc1nccc(-c2cccnc2)n1 [Example 54, 4-Methyl-3-[[4-(3-pyridinyl)-2-pyrimidinyl]amino]-N-[[4-(trifluoromethyl)phenyl]methyl]benzamide] | 69 | 74
4 | Cc1ccc(C(=O)NCCN2CCOCC2)cc1Nc1nccc(-c2cccnc2)n1 [Example 10, 4-Methyl-N-(2-morpholinoethyl)-3-[[4-(3-pyridinyl)-2-pyrimidinyl]amino]-benzamide] | 57 | 48
5 | Cc1ccc(C(=O)NCCCN2CCCC2=O)cc1Nc1nccc(-c2cccnc2)n1 [Example 20, 4-Methyl-N-[3-(2-oxo-1-pyrrolidinyl)propyl]-3-[[4-(3-pyridinyl)-2-pyrimidinyl]amino]benzamide] | 56 | 22
6 | Cc1ccc(C(=O)NCCN2CCCCC2)cc1Nc1nccc(-c2cccnc2)n1 [Example 52, 4-Methyl-N-[2-(1-piperidinyl)ethyl]-3-[[4-(3-pyridinyl)-2-pyrimidinyl]amino]benzamide] | 78 | 37
7 | Cc1ccc(C(=O)N(C)Cc2ccccc2)cc1Nc1nccc(-c2cccnc2)n1 [Example 21, N,4-Dimethyl-N-(phenylmethyl)-3-[[4-(3-pyridinyl)-2-pyrimidinyl]amino]-benzamide] | 30 | 93
8 | Cc1ccc(C(=O)NCCCN(C)c2ccccc2)cc1Nc1nccc(-c2cccnc2)n1 [Example 63, 4-Methyl-N-[3-(methylphenylamino)propyl]-3-[[4-(3-pyridinyl)-2-pyrimidinyl]-amino]benzamide] | 74 | 82
9 | CCOC(=O)Cc1ccc(NC(=O)c2ccc(C)c(Nc3nccc(-c4cccnc4)n3)c2)cc1 [Example 62, 4-[[4-Methyl-3-[[4-(3-pyridinyl)-2-pyrimidinyl]amino]benzoyl]amino]benzene-acetic acid ethyl ester] | 59 | 44
10 | Cc1ccc(C(=O)N2CCN(c3ccccn3)CC2)cc1Nc1nccc(-c2cccnc2)n1 [Example 3, 1-[4-Methyl-3-[[4-(3-pyridinyl)-2-pyrimidinyl]amino]benzoyl]-4-(2-pyridinyl)piperazine] | 66 | 71
11 | Cc1ccc(C(=O)NCC(c2ccccc2)c2ccccc2)cc1Nc1nccc(-c2cccnc2)n1 [Example 49, N-(2,2-Diphenylethyl)-4-methyl-3-[[4-(3-pyridinyl)-2-pyrimidinyl]amino]-benzamide] | 72 | 37
12 | CCOC(=O)C(NC(=O)c1ccc(C)c(Nc2nccc(-c3cccnc3)n2)c1)C(=O)OCC [Example 65, [[4-Methyl-3-[[4-(3-pyridinyl)-2-pyrimidinyl]amino]benzoyl]amino]propanedioic acid diethyl ester] | 96 | 60
13 | Cc1ccc(C(=O)N[C@H]2CCCCNC2=O)cc1Nc1nccc(-c2cccnc2)n1 [Example 14, N-[(3S)-Hexahydro-2-oxo-1H-azepin-3-yl]-4-methyl-3-[[4-(3-pyridinyl)-2-pyrimidinyl]amino]benzamide] | 49 | 54

Results, then the compound that gave them:

Row | inhibition at 10 µM (c-Abl) [%] | inhibition at 10 µM (KDR) [%] | SMILES
14 | 28 | 82 | Cc1ccc(C(=O)N2CCN(c3ccncc3)CC2)cc1Nc1nccc(-c2cccnc2)n1 [Example 37, 1-[4-Methyl-3-[[4-(3-pyridinyl)-2-pyrimidinyl]amino]benzoyl]-4-(4-pyridinyl)-piperazine]
15 | 65 | 78 | Cc1ccc(C(=O)N2CCN(C3CCCC3)CC2)cc1Nc1nccc(-c2cccnc2)n1 [Example 40, 1-Cyclopentyl-4-[4-methyl-3-[[4-(3-pyridinyl)-2-pyrimidinyl]amino]benzoyl]piperazine]
16 | 90 | 50 | Cc1ccc(C(=O)Nc2cccc(Cl)c2)cc1Nc1nccc(-c2cccnc2)n1 [Example 48, N-(3-Chlorophenyl)-4-methyl-3-[[4-(3-pyridinyl)-2-pyrimidinyl]amino]benzamide]
17 | 92 | 52 | Cc1ccc(C(=O)NC(c2ccccc2)c2ccccc2)cc1Nc1nccc(-c2cccnc2)n1 [Example 51, N-(Diphenylmethyl)-4-methyl-3-[[4-(3-pyridinyl)-2-pyrimidinyl]amino]benzamide]
18 | 71 | 60 | Cc1ccc(C(=O)NC2CCN(Cc3ccccc3)CC2)cc1Nc1nccc(-c2cccnc2)n1 [Example 5, 4-Methyl-N-[1-(phenylmethyl)-4-piperidinyl]-3-[[4-(3-pyridinyl)-2-pyrimidinyl]amino]benzamide]
19 | 39 | 74 | CCOC(=O)CN(Cc1ccccc1)C(=O)c1ccc(C)c(Nc2nccc(-c3cccnc3)n2)c1 [Example 47, N-[4-Methyl-3-[[4-(3-pyridinyl)-2-pyrimidinyl]amino]benzoyl]-N-(phenylmethyl)-glycine ethyl ester]
